A short description of data set [1]: Solubility in 0.1 M phosphate buffer at pH 7. In kind it is physicochemical. The settings on record: 0.1 M phosphate buffer at pH 7, 10 mg/mL final peptide concentration, shaking 2 hours at room temperature, peptides as TFA-salts, measured sample pH 6.5-7.0; for solubility: read-out: Solubility.
Data set [2] is described as follows: Mouse PK after intravenous application. Format: in vivo. The settings on record: plasma, male NMRI mice, intravenous 30-60 nmol/kg, non-compartmental analysis. As to the method:
Pharmacokinetic parameters of the peptides were determined after intravenous application to NMRI mice (Naval Medical Research Institute mice). Male NMRI mice were obtained from Janvier Laboratories (France) weighing 30 g to 40 g. Mice were housed in standard cages with a 12:12 hours light:dark cycle and standard food and water access ad libitum. Each test peptide was dissolved in 50 mM phosphate buffer (pH 7.4)/3.5% mannitol. Intravenous application of 30-60 nmol/kg was performed via the tail vein. Serial blood samples from conscious mice were collected from the saphenous vein in EDTA-containing vials at different time points up to 56 hours post-dosing. Subsequently, plasma was prepared by centrifugation for 5 minutes at approximately 5000 rpm and stored at −20° C. until quantification of the peptide plasma levels by liquid chromatography mass spectrometry (LC-MS). Individual plasma concentration-time profiles were analysed by a non-compartmental approach and the resulting pharmacokinetic parameters were calculated.

Another data set deals with T1, hGIPR (Homo sapiens, UniProt P48546).
T1 construct: expressed in transfected cells; host or cells: CHO CRE-luciferase reporter cells
T1 sequence (P48546 22-466): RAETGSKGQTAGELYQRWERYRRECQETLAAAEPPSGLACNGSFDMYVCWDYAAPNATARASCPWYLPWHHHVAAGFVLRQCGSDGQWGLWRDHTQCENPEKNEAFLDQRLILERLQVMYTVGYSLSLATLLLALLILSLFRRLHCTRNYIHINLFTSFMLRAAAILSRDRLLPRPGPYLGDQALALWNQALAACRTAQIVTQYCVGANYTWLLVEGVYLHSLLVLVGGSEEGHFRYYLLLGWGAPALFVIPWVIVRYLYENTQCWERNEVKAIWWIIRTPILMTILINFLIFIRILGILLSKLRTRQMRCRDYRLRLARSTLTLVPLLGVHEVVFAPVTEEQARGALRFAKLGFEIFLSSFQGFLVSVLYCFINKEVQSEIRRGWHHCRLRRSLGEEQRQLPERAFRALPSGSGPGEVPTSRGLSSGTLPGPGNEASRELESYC
In words: hGIPR CreLuc assay in 0.5% and 100% plasma (CHO CRE-luciferase reporter cells). In kind it is cell-based.

For the next data set, the target named is T2, hGLP1R (Homo sapiens, UniProt P43220).
T2 construct: expressed in transfected cells; host or cells: HEK-293 CRE-luciferase reporter cells
T2 sequence (P43220 24-463): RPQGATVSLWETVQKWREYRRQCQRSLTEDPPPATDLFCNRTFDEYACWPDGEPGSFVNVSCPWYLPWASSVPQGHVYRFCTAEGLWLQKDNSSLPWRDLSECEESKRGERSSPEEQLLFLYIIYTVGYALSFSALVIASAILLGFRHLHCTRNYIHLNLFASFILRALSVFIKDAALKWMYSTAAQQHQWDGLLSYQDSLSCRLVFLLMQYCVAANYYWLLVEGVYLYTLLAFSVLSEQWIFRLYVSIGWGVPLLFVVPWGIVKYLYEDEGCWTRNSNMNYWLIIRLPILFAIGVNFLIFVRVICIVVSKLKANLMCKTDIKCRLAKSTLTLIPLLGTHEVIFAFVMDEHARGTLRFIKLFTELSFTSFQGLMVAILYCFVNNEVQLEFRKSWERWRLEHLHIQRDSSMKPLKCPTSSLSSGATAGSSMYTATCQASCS
In words: hGLP1R CreLuc assay in 0.5% and 100% plasma (HEK-293 CRE-luciferase reporter cells). The settings on record: HEK-293 reporter cells. Format: cell-based. For orientation: In a reporter assay the amount or activity of a reporter protein is the signal.

Setting [3] is: 0.5% human plasma, read-out: hGIPR 0.5% hP.
Setting [4] is: 0.5% human plasma, read-out: hGLP1R 0.5% hP.

Like-named read-outs stand apart in the source and are kept apart here.

As for `CC[C@H](C)[C@H](NC(=O)[C@H](CC(C)C)NC(=O)[C@H](Cc1c[nH]cn1)NC(=O)[C@H](CCCNC(=N)N)NC(=O)[C@@H](NC(=O)[C@H](Cc1ccccc1)NC(=O)[C@H](C)NC(=O)C(C)(C)NC(=O)[C@H](CCC(N)=O)NC(=O)[C@H](C)NC(=O)[C@H](CCC(N)=O)NC(=O)[C@H](CCCCN)NC(=O)[C@H](CCC(=O)O)NC(=O)[C@H](CC(C)C)NC(=O)C(C)(C)NC(=O)[C@@H](NC(=O)[C@H](CO)NC(=O)[C@H](Cc1ccc(O)cc1)NC(=O)[C@H](CC(=O)O)NC(=O)[C@H](CO)NC(=O)[C@@H](NC(=O)[C@H](Cc1ccccc1)NC(=O)[C@@H](NC(=O)CNC(=O)[C@H](CCC(=O)O)NC(=O)C(C)(C)NC(=O)[C@@H](N)Cc1ccc(O)cc1)[C@@H](C)O)[C@@H](C)O)[C@@H](C)CC)C(C)C)C(=O)N[C@@H](CC(N)=O)C(=O)N[C@@H](CCCCNC(=O)CCCCCNC(=O)CC[C@H](NC(=O)CC[C@H](NC(=O)CC[C@H](NC(=O)CC[C@H](NC(=O)CC[C@H](NC(=O)CCCCCCCCCCCCCCCCC(=O)O)C(=O)O)C(=O)O)C(=O)O)C(=O)O)C(=O)O)C(=O)N[C@@H](CC(C)C)C(=O)N[C@H](C(=O)N[C@@H](CCCNC(=N)N)C(=O)N[C@@H](CCC(N)=O)C(=O)N[C@@H](CCCNC(=N)N)C(=O)N[C@@H](Cc1ccc(O)cc1)C(N)=O)[C@@H](C)O` [Compound 69, Y-Aib-E-G-T-F-T-S-D-Y-S-I-Aib-L-E-K-Q-A-Q-Aib-A-F-V-R-H-L-I-N-K(1,3)-L-T-R-Q-R-Y-NH2.C18DA-gGlu-gGlu-gGlu-gGlu-gGlu-AHX(1,2)], the solubility in data set [1] stood at 4800 µg/mL. In data set [2], this molecule yielded a mean residence time MRT of 4.6 h.
In the same order, the values of `CC[C@H](C)[C@H](NC(=O)[C@H](CC(C)C)NC(=O)[C@H](Cc1c[nH]cn1)NC(=O)[C@H](CCCNC(=N)N)NC(=O)[C@@H](NC(=O)[C@H](Cc1ccccc1)NC(=O)[C@H](C)NC(=O)C(C)(C)NC(=O)[C@H](CCC(N)=O)NC(=O)[C@H](C)NC(=O)[C@H](CCC(N)=O)NC(=O)[C@H](CCCCN)NC(=O)[C@H](CC(=O)O)NC(=O)[C@H](CC(C)C)NC(=O)C(C)(C)NC(=O)[C@@H](NC(=O)[C@H](CO)NC(=O)[C@H](Cc1ccc(O)cc1)NC(=O)[C@H](CC(=O)O)NC(=O)[C@H](CO)NC(=O)[C@@H](NC(=O)[C@H](Cc1ccccc1)NC(=O)[C@@H](NC(=O)CNC(=O)[C@H](CCC(=O)O)NC(=O)C(C)(C)NC(=O)[C@@H](N)Cc1ccc(O)cc1)[C@@H](C)O)[C@@H](C)O)[C@@H](C)CC)C(C)C)C(=O)N[C@@H](CC(N)=O)C(=O)N[C@@H](CCCCNC(=O)[C@@H](N)CCCCNC(=O)CC[C@H](NC(=O)[C@H](CCC(=O)O)NC(=O)CC[C@H](NC(=O)CC[C@H](NC(=O)CC[C@H](NC(=O)CC[C@H](NC(=O)CCCCCCCCCCCCCCCCCCC(=O)O)C(=O)O)C(=O)O)C(=O)O)C(=O)O)C(=O)O)C(=O)NC(C)(C)C(=O)N[C@H](C(=O)N[C@@H](CCCNC(=N)N)C(=O)N[C@@H](CCC(N)=O)C(=O)N[C@@H](CCCNC(=N)N)C(=O)N[C@@H](Cc1ccc(O)cc1)C(N)=O)[C@@H](C)O` [Compound 74, Y-Aib-E-G-T-F-T-S-D-Y-S-I-Aib-L-D-K-Q-A-Q-Aib-A-F-V-R-H-L-I-N-K(1,3)-Aib-T-R-Q-R-Y-NH2.C20DA-gGlu-gGlu-gGlu-gGlu-gGlu-gGlu-eLys(1,2)] are 8600 µg/mL and 16.4 h.
In the case of `CC[C@H](C)[C@H](NC(=O)[C@H](CC(C)C)NC(=O)[C@H](Cc1c[nH]cn1)NC(=O)[C@H](CCCNC(=N)N)NC(=O)[C@@H](NC(=O)[C@H](Cc1ccccc1)NC(=O)[C@H](C)NC(=O)C(C)(C)NC(=O)[C@H](CCC(N)=O)NC(=O)[C@H](C)NC(=O)[C@H](CCC(N)=O)NC(=O)[C@H](CCCCN)NC(=O)[C@H](CCC(=O)O)NC(=O)[C@H](CC(C)C)NC(=O)C(C)(C)NC(=O)[C@@H](NC(=O)[C@H](CO)NC(=O)[C@H](Cc1ccc(O)cc1)NC(=O)[C@H](CC(=O)O)NC(=O)[C@H](CO)NC(=O)[C@@H](NC(=O)[C@H](Cc1ccccc1)NC(=O)[C@@H](NC(=O)CNC(=O)[C@H](CCC(=O)O)NC(=O)C(C)(C)NC(=O)[C@@H](N)Cc1ccc(O)cc1)[C@@H](C)O)[C@@H](C)O)[C@@H](C)CC)C(C)C)C(=O)N[C@@H](CC(N)=O)C(=O)N[C@@H](CCCCNC(=O)CC[C@H](NC(=O)CC[C@H](NC(=O)CC[C@H](NC(=O)CC[C@H](NC(=O)CCCCCCCCCCCCCCCCC(=O)O)C(=O)O)C(=O)O)C(=O)O)C(=O)O)C(=O)NC(C)(C)C(=O)N[C@H](C(=O)N[C@@H](CCCNC(=N)N)C(=O)N[C@@H](CCC(N)=O)C(=O)N[C@@H](CCCNC(=N)N)C(=O)N[C@@H](Cc1ccc(O)cc1)C(N)=O)[C@@H](C)O` [Compound 77, Y-Aib-E-G-T-F-T-S-D-Y-S-I-Aib-L-E-K-Q-A-Q-Aib-A-F-V-R-H-L-I-N-K(1,3)-Aib-T-R-Q-R-Y-NH2.C18DA-gGlu-gGlu-gGlu-gGlu(1,2)], the EC50 at hGIPR (setting [3]) was found to be 0.3 nM; at hGLP1R (setting [4]) it was 0.4 nM; on hGLP1R (100% human plasma, read-out: hGLP1R 100% hP), 1.8 nM. Also, the solubility at 2 h in data set [1] worked out at 400 µg/mL. The same molecule came in with an MRT in data set [2] of 7.4 h.
In the case of `CC[C@H](C)[C@H](NC(=O)[C@H](CC(C)C)NC(=O)[C@H](Cc1c[nH]cn1)NC(=O)[C@H](CCCNC(=N)N)NC(=O)[C@@H](NC(=O)[C@H](Cc1ccccc1)NC(=O)[C@H](CCC(=O)O)NC(=O)C(C)(C)NC(=O)[C@H](CCC(N)=O)NC(=O)[C@H](C)NC(=O)[C@H](CCC(N)=O)NC(=O)[C@H](CCCCN)NC(=O)[C@H](CCC(=O)O)NC(=O)[C@H](CC(C)C)NC(=O)C(C)(C)NC(=O)[C@@H](NC(=O)[C@H](CO)NC(=O)[C@H](Cc1ccc(O)cc1)NC(=O)[C@H](CC(=O)O)NC(=O)[C@H](CO)NC(=O)[C@@H](NC(=O)[C@H](Cc1ccccc1)NC(=O)[C@@H](NC(=O)CNC(=O)[C@H](CCC(=O)O)NC(=O)C(C)(C)NC(=O)[C@@H](N)Cc1ccc(O)cc1)[C@@H](C)O)[C@@H](C)O)[C@@H](C)CC)C(C)C)C(=O)N[C@@H](CC(N)=O)C(=O)N[C@@H](CCCCNC(=O)CC[C@H](NC(=O)CC[C@H](NC(=O)CC[C@H](NC(=O)CC[C@H](NC(=O)CCCCCCCCCCCCCCCCC(=O)O)C(=O)O)C(=O)O)C(=O)O)C(=O)O)C(=O)NC(C)(C)C(=O)N[C@H](C(=O)N[C@@H](CCCNC(=N)N)C(=O)N[C@@H](CCC(N)=O)C(=O)N[C@@H](CCCNC(=N)N)C(=O)N[C@@H](Cc1ccc(O)cc1)C(N)=O)[C@@H](C)O` [Compound 79, Y-Aib-E-G-T-F-T-S-D-Y-S-I-Aib-L-E-K-Q-A-Q-Aib-E-F-V-R-H-L-I-N-K(1,3)-Aib-T-R-Q-R-Y-NH2.C18DA-gGlu-gGlu-gGlu-gGlu(1,2)], the solubility in data set [1] was 4200 µg/mL. Moreover, the MRT in data set [2] was 7 h.
For `CC[C@H](C)[C@H](NC(=O)[C@H](CC(C)C)NC(=O)[C@H](Cc1c[nH]cn1)NC(=O)[C@H](CCCNC(=N)N)NC(=O)[C@@H](NC(=O)[C@H](Cc1ccccc1)NC(=O)[C@H](C)NC(=O)C(C)(C)NC(=O)[C@H](CCC(N)=O)NC(=O)[C@H](C)NC(=O)[C@H](CCC(N)=O)NC(=O)[C@H](CCCCN)NC(=O)[C@H](CCC(=O)O)NC(=O)[C@H](CC(C)C)NC(=O)C(C)(C)NC(=O)[C@@H](NC(=O)[C@H](CO)NC(=O)[C@H](Cc1ccc(O)cc1)NC(=O)[C@H](CC(=O)O)NC(=O)[C@H](CO)NC(=O)[C@@H](NC(=O)[C@H](Cc1ccccc1)NC(=O)[C@@H](NC(=O)CNC(=O)[C@H](CCC(=O)O)NC(=O)C(C)(C)NC(=O)[C@@H](N)Cc1ccc(O)cc1)[C@@H](C)O)[C@@H](C)O)[C@@H](C)CC)C(C)C)C(=O)N[C@@H](CC(N)=O)C(=O)N[C@@H](CCCCNC(=O)[C@@H](N)CCCCNC(=O)CC[C@H](NC(=O)CC[C@H](NC(=O)CC[C@H](NC(=O)CC[C@H](NC(=O)CC[C@H](NC(=O)CC[C@H](NC(=O)CC[C@H](NC(=O)CCCCCCCCCCCCCCCCC(=O)O)C(=O)O)C(=O)O)C(=O)O)C(=O)O)C(=O)O)C(=O)O)C(=O)O)C(=O)NC(C)(C)C(=O)N[C@H](C(=O)N[C@@H](CCCNC(=N)N)C(=O)N[C@@H](CCC(N)=O)C(=O)N[C@@H](CCCNC(=N)N)C(=O)N[C@@H](Cc1ccc(O)cc1)C(N)=O)[C@@H](C)O` [Compound 121, Y-Aib-E-G-T-F-T-S-D-Y-S-I-Aib-L-E-K-Q-A-Q-Aib-A-F-V-R-H-L-I-N-K(1,3)-Aib-T-R-Q-R-Y-NH2.C18DA-gGlu-gGlu-gGlu-gGlu-gGlu-gGlu-gGlu-eLys(1,2)], the EC50 was found to be 0.2 nM on hGIPR (setting [3]); 2.8 nM on hGIPR (100% human plasma, read-out: hGIPR 100% hP); 0.4 nM on hGLP1R (setting [4]). The solubility at 2 h in data set [1] is 4200 µg/mL. The MRT in data set [2] was 10 h.

As a reminder, the solubility is the dissolved amount per volume that the medium holds. Broadly, the MRT is the average time that molecules of a dose stay in the body.

Values taken from patent US20250382344A1, “Soluble GLP1/GIP/NPY2 Receptor Triple Agonists” (Boehringer Ingelheim International GmH, priority 2024, published 2025).
